Measured values: US4281009A, “Hydantoin derivatives” (Nippon Zoki Pharmaceutical Co., Ltd., priority 1978, dated 1981)

Key:
[1] = test system: normal mice and SART stress mice; test: Analgesic effect, tail pressure method (Randall-Selitto's device); assay type: in vivo, mice (ddY-strain male); conditions: for change in vivo at 100 mg/kg / change in vivo at 200 mg/kg: Mus musculus; for change in vivo at 200 mg/kg: intraperitoneal 200 mg/kg; for Analgesic effect: intraperitoneal 50 mg/kg
Protocol: 5.1 Tail pressure method:
Randall-Selitto's device for determining analgesic effect by pressure stimulation was used. […]. The compounds of the present invention or other comparative drugs were given thereto and analgesic effect was determined. The effect was judged by measuring pressure applied 60 minutes after the intraperitoneal administration of the compounds of the present invention. The pressure thus measured was divided by a pressure before the administration. The value thus obtained was compared with that of a control group (to which 10 ml./Kg of 0.5% sodium salt of carboxymethylcellulose or 0.5% Tween 80 was given). When the compounds of the present invention were given perorally and other comparative drugs were given, an average of the pressure at 30, 60, 90 and 120 minutes after the administration was employed for evaluating the effect.

[2] = test system: normal mice and SART stress mice; test: Analgesic effect, D'Amour-Smith method; assay type: in vivo, mice (ddY-strain male); conditions: Mus musculus; for responders at 200 mg/kg: intraperitoneal 200 mg/kg
Protocol: 5.3. D'Amour-Smith method:
Groups each comprising 10 ddY-strain male normal mice and SART stress mice to which SART stress had been applied for 4 days were used. The root of the tail of the mouse to which black ink was applied was irradiated with infrared rays for up to 15 seconds. Time required till escape response was observed was measured. The effect was shown by the ratio of the mice in which an average value of the response time at 30, 60, 90 and 120 minutes after the administration of the compounds of the present invention or other comparative drugs was prolonged to at least 2 times as long as the time before the administration.

[3] = test system: ddY-strain male mice; test: Effect of prolongation of sleeping time (hexobarbital); assay type: in vivo; conditions: for change in vivo at 100 mg/kg / change in vivo at 300 mg/kg: Mus musculus, ip; for change in vivo at 100 mg/kg: 100 mg/kg intraperitoneal; for change in vivo at 300 mg/kg: 300 mg/kg intraperitoneal; for Effect of prolongation of sleeping time: 50 mg/kg intraperitoneal
Protocol: 7. Effect of prolongation of sleeping time:
Groups of mice each comprising 10 ddY-strain male mice were used. Sodium salt of hexobarbital was given intraperitoneally. Thereafter, the period of time in which righting reflex disappeared was measured. The effect was evaluated on the basis of prolongation of time of disappearance of righting reflex by the intraperitoneal administration of the compounds of the present invention as compared with control mice.

[4] = Acute toxicity test (LD50, Litchfield-Wilcoxon), mice; conditions: mouse, in vivo, ip, intraperitoneal
Protocol: (§1) Toxicity tests were carried out by intraperitoneal administration of the compound of the present invention to groups each comprising 10 ICR-strain mice and SD-strain rats. LD50 was calculated by the Litchfield-Wilcoxon method based on the number of death 72 hours after the administration.

[5] = Acute toxicity test (LD50, Litchfield-Wilcoxon), rats; conditions: rat, in vivo, ip, intraperitoneal
Protocol: as §1

[6] = test system: normal mice and SART stress mice; test: Analgesic effect, acetic acid writhing method; assay type: in vivo; conditions: Mus musculus, sc, 100 mg/Kg subcutaneously
Protocol: 5.2. Acetic acid writhing method: 0.1 ml./10 g of isotonic sodium chloride solution containing 0.7% acetic acid was given intraperitoneally to groups of mice each comprising 5 normal mice and 5 SART stress mice to which SART stress had been applied for 8 days. Writhing syndromes number appeared for 15 minutes after the administration was measured. The effect was evaluated by giving 100 mg/Kg of the compounds of the present invention or DPH subcutaneously and comparing the writhing syndromes number of the mice with that of control mice.

[7] = ip, 1 h, SART stress mice, intraperitoneal 100 mg/kg, 60 minutes
[8] = ip, 1 h, normal mice, intraperitoneal 100 mg/kg, 60 minutes
[9] = ip, 1 h, SART stress mice, 60 minutes
[10] = ip, 1 h, normal mice, 60 minutes

SMILES | change in vivo at 100 mg/kg [3] | change in vivo at 300 mg/kg [3] | LD50 at 72 h ([4]; female) | LD50 at 72 h ([4]; male) | LD50 at 72 h ([5]; female) | LD50 at 72 h ([5]; male) | also measured
Cc1c(N(C)C)c(=O)n(-c2ccccc2)n1C [Aminopyrine, reference compound] | – | – | – | – | – | – | change in vivo at 100 mg/kg ([1]; po, SART stress mice, peroral 100 mg/kg, average of 30, 60, 90 and 120 minutes): 58.9%; change in vivo at 100 mg/kg ([1]; po, normal mice, peroral 100 mg/kg, average of 30, 60, 90 and 120 minutes): 43.5%; responders at 100 mg/kg ([2]; po, SART stress mice, peroral 100 mg/kg): 50%; responders at 100 mg/kg ([2]; po, normal mice, peroral 100 mg/kg): 10%
O=C1NC(=O)C(c2ccccc2)(c2ccccc2O)N1 (centres unmarked) [Compound 6, 5-(2-Hydroxyphenyl)-5-phenylhydantoin] | 30.6% | 33.7% | > 5000 mg/kg | > 5000 mg/kg | > 5000 mg/kg | > 5000 mg/kg | change in vivo at 100 mg/kg [1, 7]: 62.7%; change in vivo at 100 mg/kg [1, 8]: 38.1%
O=C1NC(=O)C(c2cccc(O)c2)(c2cccc(O)c2)N1 [Compound 8, 5,5-Bis(3-hydroxyphenyl)hydantoin] | 16.9% | – | 1270 mg/kg | 1350 mg/kg | 1660 mg/kg | 1800 mg/kg | change in vivo at 100 mg/kg [1, 7]: 54.7%; change in vivo at 100 mg/kg [1, 8]: 22.9%
CCCOc1ccccc1C1(c2ccccc2OCCC)NC(=O)NC1=O [Compound 9, 5,5-Bis(2-propoxyphenyl)hydantoin] | – | 39% | > 5000 mg/kg | > 5000 mg/kg | > 5000 mg/kg | > 5000 mg/kg | Effect of prolongation of sleeping time [3]: 10.5%; change in vivo at 200 mg/kg [1, 9]: 74.4%; change in vivo at 200 mg/kg [1, 10]: 21.3%
CCCOc1ccc(C2(c3ccc(OCCC)cc3)NC(=O)NC2=O)cc1 [Compound 10, 5,5-Bis(4-propoxyphenyl)hydantoin] | – | – | 3460 mg/kg | 3600 mg/kg | 3800 to 4000 mg/kg | 4000 mg/kg | Effect of prolongation of sleeping time [3]: 17.0%
COc1ccc(C2(c3ccc(O)cc3)NC(=O)NC2=O)cc1 (centres unmarked) [Compound 11, 5-(4-Hydroxyphenyl)-5-(4-methoxyphenyl)hydantoin] | – | – | 3000 mg/kg | > 3000 mg/kg | > 5000 mg/kg | > 5000 mg/kg | –
O=C1NC(=O)C(c2ccccc2OCc2ccccc2)(c2ccccc2OCc2ccccc2)N1 [Compound 12, 5,5-Bis(2-benzyloxyphenyl)hydantoin] | – | – | > 5000 mg/kg | > 5000 mg/kg | > 5000 mg/kg | > 5000 mg/kg | –
Cc1ccc(C2(c3ccc(C)cc3)NC(=O)NC2=O)cc1 [Compound 13, 5,5-Bis(4-methylphenyl)hydantoin] | – | 14.1% | > 5000 mg/kg | > 5000 mg/kg | > 5000 mg/kg | > 5000 mg/kg | –
O=C1NC(=O)C(c2ccc(O)cc2)(c2ccc(O)c(O)c2)N1 (centres unmarked) [Compound 14, 5-(3,4-Dihydroxyphenyl)-5-(4-hydroxyphenyl)hydantoin] | 20.2% | – | 1200 mg/kg | 1280 mg/kg | 1480 mg/kg | 1500 mg/kg | change in vivo at 100 mg/kg [1, 7]: 102%; change in vivo at 100 mg/kg [1, 8]: 42.6%; Analgesic effect ([1]; SART stress mice, 60 minutes): 78.3%; Analgesic effect ([1]; normal mice, 60 minutes): 35.2%; responders at 100 mg/kg ([2]; ip, SART stress mice, intraperitoneal 100 mg/kg): 60%; responders at 100 mg/kg ([2]; ip, normal mice, intraperitoneal 100 mg/kg): 30%; inhibition in vivo at 100 mg/kg ([6]; SART stress mice): 36.2%; inhibition in vivo at 100 mg/kg ([6]; normal mice): 5%
COc1ccc(C2(c3ccc(OC)cc3OC)NC(=O)NC2=O)cc1 (centres unmarked) [Compound 15, 5-(2,4-Dimethoxyphenyl)-5-(4-methoxyphenyl)hydantoin] | 15.4% | 23.9% | > 5000 mg/kg | > 5000 mg/kg | > 5000 mg/kg | > 5000 mg/kg | –
COc1ccc(C2(c3ccc(OC)c(OC)c3)NC(=O)NC2=O)cc1 (centres unmarked) [Compound 16, 5-(3,4-Dimethoxyphenyl)-5-(4-methoxyphenyl)hydantoin] | – | 20.8% | > 5000 mg/kg | > 5000 mg/kg | > 5000 mg/kg | > 5000 mg/kg | –
O=C1NC(=O)C(c2ccc(O)c(O)c2)(c2ccc(O)c(O)c2)N1 [Compound 17, 5,5-Bis(3,4-dihydroxyphenyl)hydantoin] | – | – | 1800 mg/kg | 1500 to 2000 mg/kg | 2220 mg/kg | 2400 mg/kg | –
COc1ccc(C2(c3ccc(OC)cc3OC)NC(=O)NC2=O)c(OC)c1 [Compound 18, 5,5-Bis(2,4-Dimethoxyphenyl)hydantoin] | – | – | > 5000 mg/kg | > 5000 mg/kg | > 5000 mg/kg | > 5000 mg/kg | –
COc1ccc(C2(c3ccc(OC)c(OC)c3)NC(=O)NC2=O)cc1OC [Compound 19, 5,5-Bis(3,4-dimethoxyphenyl)hydantoin] | 10% | – | > 5000 mg/kg | > 5000 mg/kg | > 5000 mg/kg | > 5000 mg/kg | –
O=C1NC(=O)C(c2ccc(O)c(CO)c2)(c2ccc(O)c(CO)c2)N1 [Compound 20, 5,5-Bis(4-hydroxy-3-hydroxymethylphenyl)hydantoin] | – | – | 2980 mg/kg | > 3000 mg/kg | 4090 mg/kg | 4310 mg/kg | –
COc1ccc(C2(c3ccc(OC)c(CO)c3)NC(=O)NC2=O)cc1CO [Compound 21, 5,5-Bis(3-hydroxymethyl-4-methoxyphenyl)hydantoin] | 25.1% | – | > 5000 mg/kg | > 5000 mg/kg | > 5000 mg/kg | > 5000 mg/kg | –
COc1cc(C2(c3ccc(OC)c(OC)c3OC)NC(=O)NC2=O)cc(OC)c1OC (centres unmarked) [Compound 22, 5-(2,3,4-Trimethoxyphenyl)-5-(3,4,5-trimethoxyphenyl)hydantoin] | 13.1% | – | > 5000 mg/kg | > 5000 mg/kg | > 5000 mg/kg | > 5000 mg/kg | –
COc1cc(C2(c3cc(OC)c(OC)c(OC)c3)NC(=O)NC2=O)cc(OC)c1OC [Compound 23, 5,5-Bis(3,4,5-trimethoxyphenyl)hydantoin] | 19.9% | 22.6% | > 5000 mg/kg | > 5000 mg/kg | > 5000 mg/kg | > 5000 mg/kg | change in vivo at 100 mg/kg [1, 7]: 66%; change in vivo at 100 mg/kg [1, 8]: 38.1%; responders at 200 mg/kg ([2]; ip, SART stress mice): 40%; responders at 200 mg/kg ([2]; ip, normal mice): 20%
CCC1(c2ccccc2O)NC(=O)NC1=O (centres unmarked) [Compound 25, 5-Ethyl-5-(2-hydroxyphenyl)hydantoin] | – | 55.4% | 1040 mg/kg | 1230 mg/kg | 1480 mg/kg | 1600 mg/kg | change in vivo at 200 mg/kg [1, 9]: 49%; change in vivo at 200 mg/kg [1, 10]: 35.5%; inhibition in vivo at 100 mg/kg ([6]; SART stress mice): 19.8%; inhibition in vivo at 100 mg/kg ([6]; normal mice): 1.9%
O=C1NC(=O)C(c2ccccc2O)(c2ccccc2O)N1 [Compound 29, 5,5-Bis(2-hydroxyphenyl)hydantoin] | – | – | 1600 mg/kg | 1600 to 1800 mg/kg | 1900 mg/kg | 1980 mg/kg | –
O=C1NC(=O)C(c2ccc(O)cc2)(c2ccc(O)cc2O)N1 (centres unmarked) [Compound 31, 5-(2,4-Dihydroxyphenyl)-5-(4-hydroxyphenyl)hydantoin] | 19.1% | – | 1200 mg/kg | 1220 mg/kg | 1510 mg/kg | 1540 mg/kg | –
O=C1NC(=O)C(c2ccc(O)cc2O)(c2ccc(O)cc2O)N1 [Compound 34, 5,5-Bis(2,4-dihydroxyphenyl)hydantoin] | – | – | 1200 mg/kg | > 1000 mg/kg | 2000 to 3000 mg/kg | 2000 to 3000 mg/kg | –
